Laboratory results from paper PMC11979685, “Synthesis of Derivatives of the Antibiotic Albicidin: The N‐Terminal Fragment as Key to Control Potency and Resistance Mediated by the Binding Protein AlbA” (Chemistry (Weinheim an Der Bergstrasse, Germany), 2025).
Converted amounts (≈) assume the structure as drawn.

Tests used:
Bacillus subtilis DSM 10 = assay: MIC determination (broth microdilution); type: cell-based; conditions: DSM10, read-out: MIC B. sub.
Experimental: (§1) After completing the syntheses, the antibacterial activity of A‐variations 4–24 was assessed by determination of MIC values against a basic set of gram‐negative and gram‐positive bacteria (Table 1). The monocyclic derivatives 4–8 featuring a cyano‐, trifluoromethyl‐, methoxy‐ and fluoro‐ substituent in para‐position were very active against the gram–negative E. coli and S. typhimurium strains with MIC values in the same range as 3rd Gen albicidin 3 or ciprofloxacin which is the gold standard for gyrase inhibitors. […] These findings are in agreement with previous studies showing good activities for cyano, trifluoromethyl, methoxy and fluoro substituents in the para‐position of different aromatic rings in the building block A.[12, 13] The activity of the monocyclic derivatives 4–8 against the gram‐positive strains B. subtilis and M. luteus were similar but slightly less pronounced compared to the lead structure 3.
(§2) 1.1 Determination of Minimal Inhibitory Concentrations (MIC)
(§3) Minimal inhibitory concentration (MIC) against selected bacterial strains values were determined according to the ninth edition of the Approved Standard M07-A9.[1] 20 μL of cryo stocks of bacterial strains were suspended in 20 mL LB medium (Lysogeny broth: 10 g/L peptone, 5 g/L yeast extract, 5 g/L NaCl). Following incubation overnight at 37°C, 200 rpm, the test inoculum was adjusted by 0.5 McFarland Standard in cation adjusted Mueller-Hinton broth (BBLTM Mueller-Hinton Broth II, Becton, Dickinson and Company, New Jersey, USA) to approximately 1x10^6 CFU mL-1. 95 μL of the bacterial inoculum were applied per well of a 96-well plate. Albicidin and albicidin derivatives 3−24 were dissolved in DMSO (100%) to an initial concentration of 2560 μg/mL and serially diluted in DMSO (100%). Initial solution and serial dilutions of Ciprofloxacin were prepared in 0.1 N HCL, respectively. 5 μL of each antibiotic dilution were added to the microdilution tray to reach albicidin concentrations of 128 μg/mL to 0.016 μg/mL per well. One row of each well plate served as a growth control without antibiotic substances and another row of the microdilution tray served as sterility control (only MHB II - media). The antimicrobial effect of the solvent (DMSO) was tested by adding 5 μL DMSO to several wells. Purity check and cell titer control were performed according to International S tandard M07-A9 on Mueller-Hinton II Agar (Mueller Hinton II Broth, 15 g/L agar-agar). Both microdilution trays and agar plates were incubated at 30−37°C for 16 h and subsequently analyzed for growth inhibition by naked eye. The following primary panel of microorganisms were purchased from German Collection of Microorganisms and Cell Cultures (DSMZ):
(§4) Escherichia coli DSM 1116
(§5) Micrococcus luteus DSM 1790
(§6) Mycobacterium phlei DSM 750
(§7) Salmonella typhimurium TA100 was kindly provided by Prof. Dr. Vera Meyer (Technische Universität Berlin). […]
(§8) was purchased as part of the single gene knockout library of E. coli K12 BW25113 (Keio collection) from Horizon Discovery group plc (Cambridge, UK).

E. coli BW25113 = assay: MIC determination (broth microdilution); type: cell-based; conditions: Escherichia coli, BW25113; read-out: MIC E. coli BW25113
Experimental: as §1, §2, §3, §4, §5, §6, §7, §8

E. coli DSM1116 = assay: MIC determination (broth microdilution); type: cell-based; conditions: Escherichia coli, DSM1116; read-out: MIC E. coli DSM1116
Experimental: as §1, §2, §3, §4, §5, §6, §7, §8

[1] = tested on: Micrococcus luteus DSM 1790; assay: MIC determination (broth microdilution); type: cell-based; conditions: DSM1790, read-out: MIC M. luteus
Experimental: as §1, §2, §3, §4, §5, §6, §7, §8

[2] = tested on: Mycobacterium phlei DSM 750; assay: MIC determination (broth microdilution); type: cell-based; conditions: Mycolicibacterium phlei, DSM750; read-out: MIC M. phlei
Experimental: as §1, §2, §3, §4, §5, §6, §7, §8

[3] = tested on: Salmonella typhimurium TA100; assay: MIC determination (broth microdilution); type: cell-based; conditions: Salmonella enterica, read-out: MIC S. typh.
Experimental: as §1, §2, §3, §4, §5, §6, §7, §8

E. coli = assay: MIC against E. coli in presence of 50 % human serum; type: cell-based; conditions: Escherichia coli; E. coli in presence of 50 % human serum; read-out: MICEc 50%HS
E. coli DNA gyrase = E. coli DNA gyrase (Escherichia coli, UniProt P0AES4); assay: E. coli gyrase DNA cleavage assay; type: biochemical; parameters: key to Gyrase inhibition strong+ / weak −: + strong inhibition; − weak inhibition in comparison to compound 16; conditions: qualitative DNA cleavage assay at 1 μM and 10 μM, in comparison to compound 16
Sequence of E. coli DNA gyrase (P0AES4 whole entry): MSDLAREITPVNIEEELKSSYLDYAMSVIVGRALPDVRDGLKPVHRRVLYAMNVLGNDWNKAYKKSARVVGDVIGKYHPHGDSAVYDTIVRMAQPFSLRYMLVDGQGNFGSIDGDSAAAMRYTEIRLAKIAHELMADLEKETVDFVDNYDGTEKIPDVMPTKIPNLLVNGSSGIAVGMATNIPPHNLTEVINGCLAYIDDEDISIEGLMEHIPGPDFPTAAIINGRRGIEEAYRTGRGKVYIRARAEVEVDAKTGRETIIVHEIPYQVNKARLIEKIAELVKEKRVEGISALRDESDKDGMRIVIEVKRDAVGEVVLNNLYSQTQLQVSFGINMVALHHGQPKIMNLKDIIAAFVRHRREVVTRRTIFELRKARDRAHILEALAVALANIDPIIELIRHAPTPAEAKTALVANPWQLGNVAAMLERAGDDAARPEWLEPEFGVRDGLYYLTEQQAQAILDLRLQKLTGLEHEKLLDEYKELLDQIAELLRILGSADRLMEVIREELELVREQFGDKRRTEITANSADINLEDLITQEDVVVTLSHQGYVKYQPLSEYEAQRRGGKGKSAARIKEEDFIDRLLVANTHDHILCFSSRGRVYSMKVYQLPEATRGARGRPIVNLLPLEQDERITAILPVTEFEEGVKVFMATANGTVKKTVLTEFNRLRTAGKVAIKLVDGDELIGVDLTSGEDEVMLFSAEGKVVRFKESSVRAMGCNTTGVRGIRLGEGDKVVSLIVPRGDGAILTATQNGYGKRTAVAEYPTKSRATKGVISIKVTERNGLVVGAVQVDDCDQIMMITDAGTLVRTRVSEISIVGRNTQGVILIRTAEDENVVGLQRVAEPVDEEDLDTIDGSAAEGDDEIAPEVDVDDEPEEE
Experimental: The target activity of the synthesized derivatives was investigated using a DNA cleavage assay with purified and enzymatically active E. coli DNA gyrase[8] (see SI). In this assay, albicidin‐stabilized complexes of gyrase and plasmid DNA are trapped, and subsequently denatured and deproteinated to reveal DNA linearized by gyrase. […] For the best performing compounds, which were able to fully stabilize the cleavage complex at a concentration of 1 μM, the concentrations at half‐maximum cleavage (CC50) were determined (Figure 3).
1.2 Escherichia coli Gyrase Cleavage Inhibition Assay
E. coli gyrase cleavage assays were executed by setting up a master mix including 0.25 µg relaxed plasmid (pBR322) in 35 mM Tris-HCl (pH 7.5), 24 mM KCl, 4 mM MgCl2, 2 mM dithithreitol (DTT), 1.8 mM spermidine, 1 mM ATP, 6.5% (wt/vol) glycerol and 0.1 mg/ml bovine serum albumin per reaction.
Of this stock solution, 13.2 µL was aliquoted for each reaction into 1.5 mL Eppendorf tubes and supplemented with 0.3 µL of the appropriate compound dilution or DMSO with a […] DMSO concentration of 2% per reaction. The reactions were started with 1.5 µL of 50 nM (pre-screening) or 40 nM (IC50 determinations) wt E. coli gyrase in dilution buffer (50 mM Tris-HCl (pH 7.5), 100 mM KCl, 2 mM DTT, 1 mM EDTA, and 50% (wt/vol) glycerol) for a […] volume of 15 µL. Reactions were incubated at 37°C for 30 minutes before addition of 1.5 µL 0.2% (wt/vol) SDS and 0.75 µL proteinase K (0.2 mg/mL) and further incubation at 37°C for 30 minutes to trap cleavage complexes. Reactions were stopped with 15 µL chloroform:isoamyl alcohol (24: 1 v/v) and 15 µL of STEB (40% (wt/vol) sucrose, […] Tris-Cl pH 8, 10 mM EDTA, 0.5 mg/mL bromophenol blue). After brief vortexing and centrifugation at 2,300g for 5 min, 15 µL of the aqueous phase was loaded onto 1% (wt/vol) agarose in TAE (Tris-acetate […] and EDTA […]) gels supplemented with 10 µg/mL ethidium bromide.
The gels were run at 85 V for 2 hours.
DNA was visualized (602/50, UV Trans, auto optimal exposure) with a ChemiDoc MP (Bio-Rad Laboratories Inc., equipped with ImageLab Touch Software v2.0.0.27) and the percentage of cleaved DNA relative to the total amount of DNA per lane was determined with ImageJ software.[2] IC50 curves were generated in GraphPad Prism (v10.0.0) using the non-linear regression curve fit variable slope with four parameters and least squares regression.

[4] = Reverse-phase HPLC retention time as estimate of lipophilicity; type: physicochemical; conditions: indicator of lipophilicity
Description: As mentioned before, albicidin 1 is a rather hydrophobic compound and improving its aqueous solubility is desirable. The lipophilicity of drug molecules is commonly characterized by the octanol/water partition coefficient (logP). An alternative approach relies on the correlation between lipophilicity and the retention time (Rt) on a reverse‐phase HPLC column.[31] This approach works well if structurally related compounds are compared as is the case for this SAR study. Rt was thus used to estimate the hydrophilicity of albicidin 1 and its derivatives 2–24 (Table 1).[32]

| Compound | MIC (Bacillus subtilis DSM 10) [µg/mL] | MIC (E. coli BW25113) [µg/mL] | MIC (E. coli DSM1116) [µg/mL] | MIC [1] [µg/mL] | MIC [2] [µg/mL] | MIC [3] [µg/mL] | MIC (E. coli) [µg/mL] | Gyrase inhibition strong+ / weak − (E. coli DNA gyrase) | Rt (retention time) [4] [min] |
| --- | --- | --- | --- | --- | --- | --- | --- | --- | --- |
| COc1c(NC(=O)c2ccc(NC(=O)c3ccc(NC(=O)[C@H](Cc4c[nH]nn4)NC(=O)c4ccc(NC(=O)c5ccc(C(F)(F)F)cc5)cc4)cn3)c(OC)c2O)ccc(C(=O)O)c1O [compound 5] | 0.125 (≈ 0.139 µM) | 0.063 (≈ 0.0702 µM) | 0.016 (≈ 0.0178 µM) | 0.5 (≈ 0.557 µM) | 1 (≈ 1.11 µM) | ≤ 0.016 | 4 | − | 8.99 |
| COc1ccc(C(=O)Nc2ccc(C(=O)N[C@@H](Cc3c[nH]nn3)C(=O)Nc3ccc(C(=O)Nc4ccc(C(=O)Nc5ccc(C(=O)O)c(O)c5OC)c(O)c4OC)nc3)cc2)nc1 [compound 6] | 0.125 (≈ 0.145 µM) | ≤ 0.016 | 0.031 (≈ 0.036 µM) | 0.125 (≈ 0.145 µM) | 2 (≈ 2.32 µM) | ≤ 0.016 | 2 | + | 8.29 |
| COc1c(NC(=O)c2ccc(NC(=O)c3ccc(NC(=O)[C@H](Cc4c[nH]nn4)NC(=O)c4ccc(NC(=O)c5ccc6nccnc6c5)cc4)cn3)c(OC)c2O)ccc(C(=O)O)c1O [compound 15] | 0.125 (≈ 0.142 µM) | 0.031 (≈ 0.0352 µM) | 0.031 (≈ 0.0352 µM) | 0.25 (≈ 0.284 µM) | 2 (≈ 2.27 µM) |  |  | + | 7.71 |
